Test: Stability test of Formula A, contents by gas chromatography
Type: physicochemical
Conditions: in Formula A; for Content T3 months (25/60) / Content T3 months (40/75): 3 months; for Content T3 months (25/60) / Content T7 months (25/60): 25° C. and 60% RH; for Content T3 months (40/75): 40° C. and 75% RH; for Content T7 months (25/60): 7 months; for Content T0 month: white glass flask
Procedure: Detection and measures of the valeric acid, ethyl lactate and linoleic acid were made by using Gas chromatography (GC). Approximately 490 mg of linoleic acid, 53 mg of valeric acid and 78 mg of ethyl lactate accurately weighed are introduced into a 50 ml volumetric flask. This is completed to volume with ethyl acetate. […] A dilution 1/20 is made and completed to volume with ethyl acetate and the solution is stirred to homogenize. Approximately 2.5 g of Formula tested is introduced into a 20 ml volumetric flask. This is completed to volume with ethyl acetate. […] The solution is limpid. Gas chromatography equipped with a Capillary Column HP-FFAP 25 m×320 μm and a FID detector at 250° C. 1 μl of the solution is injected in the inlet (250° C.) and eluted through the column with Helium at constant flow (3 ml/min). Valeric acid (≈5.2 min), linoleic acid (≈13.5 min) and ethyl lactate (≈2.7 min) are quantified and contents thereof (% w/w) are given by the ratio of the areas of the peak corresponding to valeric acid, linoleic acid or ethyl lactate in the chromatogram obtained with the sample preparation and the standard solution.

Row | SMILES | Content T3 months (25/60) [% w/w] | Content T3 months (40/75) [% w/w] | Content T7 months (25/60) [% w/w] | Content T0 month [% w/w]
1 | CCCCC/C=C\C/C=C\CCCCCCCC(=O)O [Linoleic acid] | 0.386 | 0.364 | 0.398 | 0.395
2 | CCOC(=O)C(C)O (stereo not drawn) [Ethyl lactate] | 0.060 | 0.059 | 0.059 | 0.0625
3 | CCCCC(=O)O [Valeric acid] | 0.039 | 0.038 | 0.039 | 0.0425

— US20200069629A1, “PHEROMONE COMPOSITIONS AND USES THEREOF” (CEVA SANTE ANIMALE, priority 2015, published 2020)
